Experimental data reported in patent US20060051526A1, “Process for producing cellulose acylate film” (Fuji Photo Film Co., Ltd., priority 2002, published 2006).

Experiments:
Format in all cases: physicochemical
[1] = Solubility test of the additive alone in dichloromethane/methanol mixed solvent (visual, after 4 days); conditions: for Solubility S0 (solids weight concentration at the dissolution limit): CH2Cl2/CH3OH 87/13
Experimental: The solubility of the functional additives was measured as follows.
1. Solutions were prepared by adjusting each concentration in a 50 cc screw cap bottle.
2. Allowed to stand at room temperature for 4 days. Here, the results of the solubility changed between 1 day and 4 days in some cases, and evaluation of the solubility was carried out after 4 days as a time when equilibrium was reached.
3. Samples were prepared in the same manner at other temperatures (20° C., 35° C.), and the solubility after allowing to stand for 4 days was visually inspected.
Predetermined amounts of Example Compounds I-(51) and I-(2) were weighed into a mixed solvent of dichloromethane and methanol, and the solubility was measured by changing the mixing ratio of the organic solvents.
The solubility (solids weight concentration at the dissolution limit was calculated as (C1+C2)/2 when the concentration limit at which it could be dissolved was C1 and the concentration limit at which it could not be dissolved was C2) of the retardation control agent in a mixed solvent having an initial methylene chloride/methanol composition ratio of 87/13 was defined as S0, and the solubility of the retardation control agent when the solvent composition changed, during drying, to 74/26 where the methanol wt % was the maximum was defined as S1. The temperature at which the solubility was measured is denoted by the figure in brackets.

[2] = Measurement of micro heat of solution (multi-purpose calorimeter MPC-110); conditions: for Degree of stabilization: Table 15; for Heat of solution ΔH0: solvent alone, 26.0° C.
Experimental: (2 Measurement of Micro Heat of Solution)
The heat of solution (dissolution enthalpy ΔH) of functional additives was measured as follows, using a multi-purpose calorimeter (MPC-110) manufactured by Tokyo Rikou as a micro heat of solution measuring instrument.
1. Solvent liquids and concentrated solutions were prepared beforehand in 1 L bottles.
2. Preparation of ampoule tubes
(1) Additives (powdered solid) were ground by a mortar and the granules were made uniform.
(2) A required amount (252 mg) of the additive to be measured was weighed into an ampoule tube for measurement of the micro heat of solution.
(3) The neck of the ampoule tube was heated sufficiently by a gas burner so as to seal the ampoule tube.
3. 50 g of the prepared solvent liquid or the concentrated solution was weighed into a measuring vessel. This amount was selected as an amount sufficient to immerse the ampoule tube in the solvent liquid when set in the measuring instrument.
4. The ampoule tube was set in the measuring instrument, which was equipped with an ampoule sealing mechanism, the measuring vessel was hermetically sealed with the ampoule sealing mechanism after confirming that the ampoule tube was immersed in the solvent liquid, it was placed in a constant temperature bath (26.0° C.), and stirring was started.
5. After confirming that the measuring instrument placed in the constant temperature bath had reached equilibrium temperature (about 8 to 12 hours) the ampoule tube was broken so as to mix the additive with the solvent liquid or the concentrated solution.
6. The total amount of heat generated was recorded.
7. The Joule's heat generated was measured by applying a known voltage to the measurement system for an appropriate time, and the recorded chart area for each measurement cell was calibrated using a known amount of heat.
8. The heat of solution of the sample was calculated from the Joule's heat and the measured sample area.
Shown in Table 11 are the solvent composition (wt %) and the solids composition (parts by weight) of the mother liquor when measuring the heat of solution, the type of retardation control agent sealed in the ampoule tube (Example Compounds I-(51) or I-(2)), and the results of measurement of the heat of solution.
The identification symbols of elements constituting the system are as follows: a denotes triacetylcellulose/plasticizer, b denotes triacetylcellulose, and c denotes plasticizer. For example, 2-87a denotes that the retardation control agent is the Example Compound I-(2), the solvent composition (wt %) is dichloromethane/methanol=87/13, and the solids constituting the system are triacetylcellulose and the plasticizer.
The heat of solution ΔH0 denotes the heat of solution (heat absorption) generated when there is no solid in the system (before breaking the ampoule tube) and the retardation control agent is dissolved in a solvent alone. […] The solids concentration of the system when saturation starts is defined as the saturation heat of solution solids concentration (wt %).
In all cases, when the solids concentration of the system is increased, the heat of solution either remains unchanged from that at a solids concentration of 0 wt % (the saturation heat of solution solids concentration is 0) or decreases and becomes saturated. […] This degree of stabilization is expressed as ΔH0−ΔHs, which is the decrease in the heat of solution.

[3] = Solubility test of the additive alone in dichloromethane/methanol mixed solvent (visual, after 4 days)
[4] = 87/13, solids b: triacetylcellulose only
[5] = 87/13, solids c: plasticizer only

COc1ccc(Nc2nc(Nc3cccc(C)c3)nc(Nc3cccc(C)c3)n2)cc1 [Example Compound I-(2)]
Ratio S1/S0 ([1]; 20° C., 87/13 vs 74/26): 0.636 | Solubility S0 (solids weight concentration at the dissolution limit) ([1]; 20° C.): 27.5 wt % | Ratio S1/S0 ([1]; 25° C., 87/13 vs 74/26): 0.636 | Difference S0 − S1 ([1]; 35° C., 87/13 vs 74/26): 10 wt % | Ratio S1/S0 ([1]; 35° C., 87/13 vs 74/26): 0.692 | Solubility S1 (solids weight concentration at the dissolution limit) ([1]; 35° C., CH2Cl2/CH3OH 74/26): 22.5 wt % | Solubility S0 (solids weight concentration at the dissolution limit) ([1]; 35° C.): 32.5 wt % | Degree of stabilization (ΔH0 − ΔHs) ([2]; 50/50, solids a): 0 kcal/mol | Saturation heat of solution solids concentration ([2]; 50/50, solids a): 0 wt % | Heat of solution ΔHs ([2]; 50/50, solids a: triacetylcellulose/plasticizer): 6.16 kcal/mol | Degree of stabilization (ΔH0 − ΔHs) ([2]; 74/26, solids a): 0 kcal/mol | Saturation heat of solution solids concentration ([2]; 74/26, solids a): 0 wt % | Heat of solution ΔHs ([2]; 74/26, solids a: triacetylcellulose/plasticizer): 6.97 kcal/mol | Degree of stabilization (ΔH0 − ΔHs) ([2]; 87/13, solids a: triacetylcellulose/plasticizer): 1.4 kcal/mol | Heat of solution ΔHs ([2]; 87/13, solids a: triacetylcellulose/plasticizer (TPP/BDP)): 6.1 kcal/mol | Degree of stabilization (ΔH0 − ΔHs) [2, 4]: 2 kcal/mol | Heat of solution ΔHs [2, 4]: 5.5 kcal/mol | Degree of stabilization (ΔH0 − ΔHs) [2, 5]: 1.1 kcal/mol | Heat of solution ΔHs [2, 5]: 6.4 kcal/mol | Degree of stabilization (ΔH0 − ΔHs) ([2]; 92/8, solids a): 1.38 kcal/mol | Saturation heat of solution solids concentration ([2]; 92/8, solids a): 7 wt % | Heat of solution ΔHs ([2]; 92/8, solids a: triacetylcellulose/plasticizer): 5.83 kcal/mol | Degree of stabilization (ΔH0 − ΔHs) ([2]; 100/0, solids a): 1.35 kcal/mol | Saturation heat of solution solids concentration ([2]; 100/0, solids a): 10 wt % | Heat of solution ΔHs ([2]; 100/0, solids a: triacetylcellulose/plasticizer): 5.29 kcal/mol | Degree of stabilization ([2]; dope Table 12, solvent composition 87/13): 1.40 kcal/mol | Degree of stabilization ([2]; dope Table 13, solvent composition 92/8): 1.38 kcal/mol | Degree of stabilization ([2]; dope Table 14, solvent composition 74/26): 0 kcal/mol | Stabilization by solids in the system (in words) ([2]; case c: only the plasticizer present in the system): is stabilized | Heat of solution ΔH0 ([2]; dichloromethane/methanol 50/50 wt %): 6.16 kcal/mol | Heat of solution ΔH0 ([2]; dichloromethane/methanol 74/26 wt %): 6.97 kcal/mol | Heat of solution ΔH0 ([2]; dichloromethane/methanol 87/13 wt %): 7.5 kcal/mol | Heat of solution ΔH0 ([2]; dichloromethane/methanol 92/8 wt %): 7.21 kcal/mol | Heat of solution ΔH0 ([2]; dichloromethane/methanol 100/0 wt %): 6.64 kcal/mol | Solubility in dichloromethane/methanol mixed solvent (in words) ([3]; 20° C. and 35° C.): excellent | Difference S0 − S1 ([3]; 20° C., 87/13 vs 74/26): 10 wt % | Difference S0 − S1 ([3]; 20° C., 92/8 vs 91/9): 0 wt % | Ratio S1/S0 ([3]; 20° C., 92/8 vs 91/9): 1.000 | Solubility S1 (solids weight concentration at the dissolution limit) ([3]; 20° C., CH2Cl2/CH3OH 74/26): 17.5 wt % | Solubility S1 (solids weight concentration at the dissolution limit) ([3]; 20° C., CH2Cl2/CH3OH 91/9): 32.5 wt % | Solubility S0 (solids weight concentration at the dissolution limit) ([3]; 20° C., CH2Cl2/CH3OH 92/8): 32.5 wt % | Difference S0 − S1 ([3]; 25° C., 87/13 vs 74/26): 10 wt % | Difference S0 − S1 ([3]; 25° C., 92/8 vs 91/9): 0 wt % | Ratio S1/S0 ([3]; 25° C., 92/8 vs 91/9): 1.000 | Solubility S1 (solids weight concentration at the dissolution limit) ([3]; 25° C., CH2Cl2/CH3OH 74/26): 17.5 wt % | Solubility S0 (solids weight concentration at the dissolution limit) ([3]; 25° C., CH2Cl2/CH3OH 87/13): 27.5 wt % | Solubility S1 (solids weight concentration at the dissolution limit) ([3]; 25° C., CH2Cl2/CH3OH 91/9): 32.5 wt % | Solubility S0 (solids weight concentration at the dissolution limit) ([3]; 25° C., CH2Cl2/CH3OH 92/8): 32.5 wt % | Difference S0 − S1 ([3]; 35° C., 92/8 vs 91/9): 0 wt % | Ratio S1/S0 ([3]; 35° C., 92/8 vs 91/9): 1.000 | Solubility S1 (solids weight concentration at the dissolution limit) ([3]; 35° C., CH2Cl2/CH3OH 91/9): 32.5 wt % | Solubility S0 (solids weight concentration at the dissolution limit) ([3]; 35° C., CH2Cl2/CH3OH 92/8): 32.5 wt %
